ChEMBL document CHEMBL6120948, “Design, Synthesis, and Biological Evaluation of Lysine-Stapled Peptide Inhibitors of p53-MDM2/MDMX Interactions with Potent Antitumor Activity In Vivo” (J Med Chem, 2024)

Experiments:
HCT-116 [1] = assay: Antitumor activity against human HCT-116 cells xenografted in BALB/c nude mouse at 10 mg/kg, iv treated for 14 days on every 48 hrs relative to control; type: functional; conditions: HCT-116, 336 h, time 14 day, read-out: TGI
HCT-116 [2] = assay: Induction of cell cycle arrest in human HCT-116 cells assessed as accumulation at G1 phase at 20 uM incubated for 24 hrs by PI staining based flow cytometry (reference value: 48.8 %); type: functional
A-375 = assay: Antiproliferative activity against human A-375 cells expressing wild-type p53 incubated for 72 hrs by MTT assay; type: functional, cell-based; conditions: A-375, 72 h
HCT-116 [3] = assay: Induction of apoptosis in human HCT-116 cells at 25 uM incubated for 48 hrs by Annexin V-FITC/PI staining based flow cytometry relative to control; type: functional
A549 = assay: Antiproliferative activity against human A549 cells expressing wild-type p53 incubated for 72 hrs by MTT assay; type: functional, cell-based; conditions: A549, 72 h
HCT-116 [4] = assay: Induction of cell cycle arrest in human HCT-116 cells assessed as accumulation at G2 phase at 5 uM incubated for 24 hrs by PI staining based flow cytometry (reference value: 17.1 %); type: functional
HCT-116 [5] = assay: Induction of cell cycle arrest in human HCT-116 cells assessed as accumulation at G1 phase at 5 uM incubated for 24 hrs by PI staining based flow cytometry (reference value: 48.8 %); type: functional
HCT-116 [6] = assay: Induction of cell cycle arrest in human HCT-116 cells assessed as accumulation at S phase at 10 uM incubated for 24 hrs by PI staining based flow cytometry (reference value: 31.8 %); type: functional
HepG2 = assay: Antiproliferative activity against human HepG2 cells expressing wild-type p53 incubated for 72 hrs by MTT assay; type: functional, cell-based; conditions: HepG2, 72 h
HCT-116 [7] = assay: Induction of cell cycle arrest in human HCT-116 cells assessed as accumulation at G1 phase at 10 uM incubated for 24 hrs by PI staining based flow cytometry (reference value: 48.8 %); type: functional
[8] = Toxicity in BALB/c nude mouse xenografted with human HCT-116 cells assessed as histopathological change in kidneys at 5 to 10 mg/kg, iv treated for 14 days on every 48 hrs by H and E staining based analysis; type: organism-based; conditions: in vivo, 336 h, dose 5-10 mg/kg, time 14 day
[9] = Toxicity in BALB/c nude mouse xenografted with human HCT-116 cells assessed as change in weight of spleen at 5 to 10 mg/kg, iv treated for 14 days on every 48 hrs; type: organism-based; conditions: in vivo, 336 h, dose 5-10 mg/kg, time 14 day
HCT-116 [10] = assay: Antitumor activity against human HCT-116 cells xenografted in BALB/c nude mouse at 5 mg/kg, iv treated for 14 days on every 48 hrs relative to control; type: functional; conditions: HCT-116, 336 h, time 14 day, read-out: TGI
[11] = Toxicity in BALB/c nude mouse xenografted with human HCT-116 cells assessed as change in body weight at 5 to 10 mg/kg, iv treated for 14 days on every 48 hrs; type: organism-based; conditions: in vivo, 336 h, dose 5-10 mg/kg, time 14 day
[12] = Toxicity in BALB/c nude mouse xenografted with human HCT-116 cells assessed as change in weight of kidneys at 5 to 10 mg/kg, iv treated for 14 days on every 48 hrs; type: organism-based; conditions: in vivo, 336 h, dose 5-10 mg/kg, time 14 day
HCT-116 [13] = assay: Induction of apoptosis in human HCT-116 cells at 50 uM incubated for 48 hrs by Annexin V-FITC/PI staining based flow cytometry relative to control; type: functional
[14] = Toxicity in BALB/c nude mouse xenografted with human HCT-116 cells assessed as histopathological change in lungs at 5 to 10 mg/kg, iv treated for 14 days on every 48 hrs by H and E staining based analysis; type: organism-based; conditions: in vivo, 336 h, dose 5-10 mg/kg, time 14 day
HCT-116 [15] = assay: Induction of cell cycle arrest in human HCT-116 cells assessed as accumulation at G2 phase at 20 uM incubated for 24 hrs by PI staining based flow cytometry (reference value: 17.1 %); type: functional
[16] = Toxicity in BALB/c nude mouse xenografted with human HCT-116 cells assessed as change in weight of lungs at 5 to 10 mg/kg, iv treated for 14 days on every 48 hrs; type: organism-based; conditions: in vivo, 336 h, dose 5-10 mg/kg, time 14 day
[17] = Antiproliferative activity against human U-87 MG cells expressing wild-type p53 incubated for 72 hrs by MTT assay; type: functional, cell-based, U-87MG ATCC
HCT-116 [18] = assay: Induction of cell cycle arrest in human HCT-116 cells assessed as accumulation at G2 phase at 10 uM incubated for 24 hrs by PI staining based flow cytometry (reference value: 17.1 %); type: functional
HeLa = assay: Antiproliferative activity against human HeLa cells expressing wild-type p53 incubated for 72 hrs by MTT assay; type: functional, cell-based
[19] = Toxicity in BALB/c nude mouse xenografted with human HCT-116 cells assessed as histopathological change in spleen at 5 to 10 mg/kg, iv treated for 14 days on every 48 hrs by H and E staining based analysis; type: organism-based; conditions: in vivo, 336 h, dose 5-10 mg/kg, time 14 day
[20] = Toxicity in BALB/c nude mouse xenografted with human HCT-116 cells assessed as change in weight of liver at 5 to 10 mg/kg, iv treated for 14 days on every 48 hrs; type: organism-based; conditions: in vivo, 336 h, dose 5-10 mg/kg, time 14 day
HCT-116 [21] = assay: Induction of cell cycle arrest in human HCT-116 cells assessed as accumulation at S phase at 20 uM incubated for 24 hrs by PI staining based flow cytometry (reference value: 31.8 %); type: functional
[22] = Stability of compound in 50 percent human serum assessed as half life measured for 24 hrs by HPLC analysis; type: ADME, cell-free; conditions: 50% human serum
ZR-75-1 = assay: Antiproliferative activity against human ZR-75-1 cells expressing wild-type p53 incubated for 72 hrs by MTT assay; type: functional, cell-based; conditions: ZR-75-1, 72 h
HCT-116 [23] = assay: Induction of cell cycle arrest in human HCT-116 cells assessed as accumulation at S phase at 5 uM incubated for 24 hrs by PI staining based flow cytometry (reference value: 31.8 %); type: functional
[24] = Induction of alpha-helical conformation in phosphate buffer at pH 7 at 100 uM by CD analysis; type: physicochemical; conditions: pH 7, 100 µM
[25] = Toxicity in BALB/c nude mouse xenografted with human HCT-116 cells assessed as histopathological change in liver at 5 to 10 mg/kg, iv treated for 14 days on every 48 hrs by H and E staining based analysis; type: organism-based; conditions: in vivo, 336 h, dose 5-10 mg/kg, time 14 day
[26] = Antiproliferative activity against human SJSA-1 cells expressing wild-type p53 incubated for 72 hrs by MTT assay; type: functional, cell-based; conditions: SJSA-1, 72 h
MCF7 = assay: Antiproliferative activity against human MCF7 cells expressing wild-type p53 incubated for 72 hrs by MTT assay; type: functional, cell-based; conditions: MCF7, 72 h
HCT-116 [27] = assay: Induction of apoptosis in human HCT-116 cells at 100 uM incubated for 48 hrs by Annexin V-FITC/PI staining based flow cytometry relative to control; type: functional
[28] = Toxicity in BALB/c nude mouse xenografted with human HCT-116 cells assessed as change in weight of heart at 5 to 10 mg/kg, iv treated for 14 days on every 48 hrs; type: organism-based; conditions: in vivo, 336 h, dose 5-10 mg/kg, time 14 day
HCT-116 [29] = assay: Antiproliferative activity against human HCT-116 cells expressing wild-type p53 incubated for 72 hrs by MTT assay; type: functional, cell-based; conditions: HCT-116, 72 h
[30] = Toxicity in BALB/c nude mouse xenografted with human HCT-116 cells assessed as histopathological change in heart at 5 to 10 mg/kg, iv treated for 14 days on every 48 hrs by H and E staining based analysis; type: organism-based; conditions: in vivo, 336 h, dose 5-10 mg/kg, time 14 day
[31] = Antiproliferative activity against HEK293T cells incubated for 72 hrs by MTT assay; type: toxicity, cell-based, HEK-293T; conditions: human
HCT-116 [32] = assay: Induction of cell cycle arrest in human HCT-116 cells assessed as accumulation at G2 phase at 10 uM incubated for 24 hrs by PI staining based flow cytometry (reference value: 17.5 %); type: functional
HCT-116 [33] = assay: Induction of cell cycle arrest in human HCT-116 cells assessed as accumulation at G2 phase at 20 uM incubated for 24 hrs by PI staining based flow cytometry (reference value: 17.5 %); type: functional
HCT-116 [34] = assay: Induction of cell cycle arrest in human HCT-116 cells assessed as accumulation at S phase at 5 uM incubated for 24 hrs by PI staining based flow cytometry (reference value: 29.4 %); type: functional
HCT-116 [35] = assay: Induction of cell cycle arrest in human HCT-116 cells assessed as accumulation at G1 phase at 20 uM incubated for 24 hrs by PI staining based flow cytometry (reference value: 50.7 %); type: functional
HCT-116 [36] = assay: Induction of cell cycle arrest in human HCT-116 cells assessed as accumulation at G2 phase at 5 uM incubated for 24 hrs by PI staining based flow cytometry (reference value: 17.5 %); type: functional
HCT-116 [37] = assay: Induction of cell cycle arrest in human HCT-116 cells assessed as accumulation at G1 phase at 10 uM incubated for 24 hrs by PI staining based flow cytometry (reference value: 50.7 %); type: functional
HCT-116 [38] = assay: Induction of cell cycle arrest in human HCT-116 cells assessed as accumulation at S phase at 10 uM incubated for 24 hrs by PI staining based flow cytometry (reference value: 29.4 %); type: functional
HCT-116 [39] = assay: Induction of cell cycle arrest in human HCT-116 cells assessed as accumulation at G1 phase at 5 uM incubated for 24 hrs by PI staining based flow cytometry (reference value: 50.7 %); type: functional
HCT-116 [40] = assay: Induction of cell cycle arrest in human HCT-116 cells assessed as accumulation at S phase at 20 uM incubated for 24 hrs by PI staining based flow cytometry (reference value: 29.4 %); type: functional

Compound: CC(=O)N[C@@H](CC(C)C)C(=O)N[C@H](C(=O)N[C@@H](Cc1ccccc1)C(=O)N[C@H]1CCCCNCc2cccc(c2)CNCCCC[C@@H](C(=O)N[C@@H](CCC(N)=O)C(=O)N[C@@H](CC(C)C)C(=O)N[C@H](C(=O)N[C@@H](CO)C(=O)N[C@@H](C)C(=O)N[C@@H](C)C(N)=O)[C@@H](C)O)NC(=O)[C@H](Cc2c[nH]c3ccccc23)NC(=O)[C@H](Cc2ccc(O)cc2)NC(=O)[C@H](Cc2c[nH]cn2)NC1=O)[C@@H](C)O
- inhibition in vivo at 10 mg/kg (HCT-116 [1]): 30%
- Activity (HCT-116 [2]): 37.4%
- IC50 (A-375): 49.2 µM
- Activity (HCT-116 [3]): 35.22%
- IC50 (A549): 27.4 µM
- Activity (HCT-116 [4]): 25.3%
- Activity (HCT-116 [5]): 35.6%
- Activity (HCT-116 [6]): 33%
- IC50 (HepG2): > 160 µM
- Activity (HCT-116 [7]): 38.1%
- Activity [8]: Non-toxic
- Activity [9]: Non-toxic
- inhibition in vivo at 5 mg/kg (HCT-116 [10]): 13%
- Activity [11]: Non-toxic
- Activity [12]: Non-toxic
- Activity (HCT-116 [13]): 94.4%
- Activity [14]: Non-toxic
- Activity (HCT-116 [15]): 31.2%
- Activity [16]: Non-toxic
- IC50 [17]: 3.7 µM
- Activity (HCT-116 [18]): 28%
- IC50 (HeLa): 45.9 µM
- Activity [19]: Non-toxic
- Activity [20]: Non-toxic
- Activity (HCT-116 [21]): 30.5%
- half-life [22]: 12 h
- IC50 (ZR-75-1): 2.6 µM
- Activity (HCT-116 [23]): 37.7%
- Activity [24]: 11%
- Activity [25]: Non-toxic
- IC50 [26]: > 160 µM
- IC50 (MCF7): 2.99 µM
- Activity (HCT-116 [27]): 93.14%
- Activity [28]: Non-toxic
- IC50 (HCT-116 [29]): 5.8 µM
- Activity [30]: Non-toxic
- IC50 at 72 h [31]: > 160 µM

Compound: CSCC[C@H](NC(=O)[C@H](CC(C)C)NC(=O)[C@H](CCC(N)=O)NC(=O)[C@@H]1CCCCNCc2ccc(cc2)CNCCCC[C@H](NC(=O)[C@H](Cc2ccccc2)NC(=O)[C@@H](NC(=O)[C@H](CC(C)C)NC(C)=O)[C@@H](C)O)C(=O)N[C@@H](CCC(=O)O)C(=O)N[C@@H](Cc2ccc(O)cc2)C(=O)N[C@@H](Cc2c[nH]c3ccccc23)C(=O)N1)C(=O)N[C@@H](CCC(N)=O)C(=O)N[C@@H](C)C(=O)N[C@@H](C)C(N)=O
- IC50 (A-375): > 160 µM
- Activity (HCT-116 [3]): 55.66%
- IC50 (A549): 6.4 µM
- IC50 (HepG2): > 160 µM
- Activity (HCT-116 [32]): 29%
- Activity (HCT-116 [33]): 32.7%
- Activity (HCT-116 [13]): 56.51%
- Activity (HCT-116 [34]): 40.5%
- Activity (HCT-116 [35]): 34.1%
- IC50 [17]: 7.2 µM
- Activity (HCT-116 [36]): 23.9%
- IC50 (HeLa): 91.8 µM
- half-life [22]: 3 h
- IC50 (ZR-75-1): 7.2 µM
- Activity [24]: 11%
- IC50 [26]: > 160 µM
- Activity (HCT-116 [37]): 33.9%
- Activity (HCT-116 [38]): 36.2%
- IC50 (MCF7): 25.3 µM
- Activity (HCT-116 [27]): 70.13%
- IC50 (HCT-116 [29]): 14.6 µM
- Activity (HCT-116 [39]): 33.8%
- Activity (HCT-116 [40]): 32.3%
- IC50 at 72 h [31]: > 160 µM
